Results reported in patent US6204293A, “Inhibitors of protein isoprenyl transferases” (University of Pittsburgh, priority 1998, dated 2001).
Counter-ions that a name gives are not always drawn.

molecular target: T1, Rat brain protein farnesyltransferase (Rattus norvegicus, UniProt Q02293+Q04631); test: % inhibition of farnesylation, scintillation proximity assay with biotin-K Ras B fragment; format: biochemical; settings: Table 2; 1 × 10^-6 M
T1 construct: Rat brain protein farnesyltransferase activity is measured; from tissue; host or cells: rat brain
T1 sequence (Q02293 whole entry, the tested form may be a part, one chain of several): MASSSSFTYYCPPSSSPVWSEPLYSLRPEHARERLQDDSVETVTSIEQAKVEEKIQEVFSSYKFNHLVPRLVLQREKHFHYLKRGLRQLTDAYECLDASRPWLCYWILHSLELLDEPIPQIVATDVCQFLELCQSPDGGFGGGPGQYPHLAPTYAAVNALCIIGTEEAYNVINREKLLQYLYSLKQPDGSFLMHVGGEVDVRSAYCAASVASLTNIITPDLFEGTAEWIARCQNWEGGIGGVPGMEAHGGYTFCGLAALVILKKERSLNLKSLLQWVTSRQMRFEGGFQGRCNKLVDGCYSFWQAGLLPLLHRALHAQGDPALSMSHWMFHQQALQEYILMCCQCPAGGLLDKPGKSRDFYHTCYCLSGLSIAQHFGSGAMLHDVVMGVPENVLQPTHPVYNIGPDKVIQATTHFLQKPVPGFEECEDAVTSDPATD
Summary of the method: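 Rat brain enzyme, purified through three steps, in a scintillation proximity assay kit with biotin-K Ras B fragment substrate at 0.1 mM final. Value is % inhibition of farnesylation.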

| SMILES | % inhibition at 1 × 10^-6 M |
| --- | --- |
| CSCC[C@H](NC(=O)c1ccc(NC(=O)Cc2ccccc2)cc1-c1ccccc1C)C(=O)O [Example 540] | 40% |
| CSCC[C@H](NC(=O)c1ccc(NC(=O)Cc2ccc(C)cc2)cc1-c1ccccc1C)C(=O)O [Example 541] | 37% |
| COc1ccc(CC(=O)Nc2ccc(C(=O)N[C@@H](CCSC)C(=O)O)c(-c3ccccc3C)c2)cc1 [Example 542] | 67% |
| COc1ccccc1CCC(=O)Nc1ccc(C(=O)N[C@@H](CCSC)C(=O)O)c(-c2ccccc2C)c1 [Example 544] | 35% |
| CSCC[C@H](NC(=O)c1ccc(CC(Cc2ccccc2)c2ccccc2)cc1-c1ccccc1C)C(=O)[O-].[Li+] (stereo partly shown) [Example 572] | 91% |

same assay, conditions: read-out: % inhibition at 1 × 10^-6 M

| SMILES | inhibition at 1 µM |
| --- | --- |
| CSCC[C@H](NC(=O)c1ccc(CSC2CCCCC2)cc1-c1ccccc1C)C(=O)O [Example 550, N-[4-cyclohexylthiomethyl-2-(2-methylphenyl)benzoyl]methionine, lithium salt] | 96% |
| CSCC[C@H](NC(=O)c1ccc(OCCC2CCCCC2)cc1-c1ccccc1C)C(=O)O [Example 552, N-[4-(2-cyclohexylethoxy)-2-(2-methylphenyl)benzoyl]methionine, lithium salt] | 88% |
| CSCC[C@H](NC(=O)c1ccc(CSCc2ccccc2)cc1-c1ccccc1C)C(=O)O [Example 554, N-[4-benzylthiomethyl-2-(2-methylphenyl)benzoyl]methionine, lithium salt] | 96% |
| CSCC[C@H](NC(=O)c1ccc(CSCc2ccc(C)cc2)cc1-c1ccccc1C)C(=O)O [Example 556, N-[4-(4-methylbenzyl)thiomethyl-2-(2-methylphenyl)benzoyl]methionine, lithium salt] | 99% |
| CSCC[C@H](NC(=O)c1ccc(CSCc2ccccc2C)cc1-c1ccccc1C)C(=O)O [Example 557, N-[4-(2-methylbenzyl)thiomethyl-2-(2-methylphenyl)benzoyl]methionine, lithium salt] | 93% |
| CSCC[C@H](NC(=O)c1ccc(OCCOC2CCCCC2)cc1-c1ccccc1C)C(=O)O [Example 565, N-[4-(2-cyclohexyloxy)ethoxy-2-(2-methylphenyl)benzoyl]methionine, lithium salt] | 94% |

same assay, conditions: read-out: % inhibition at 1 × 10^-6 M; Table 2; 1 × 10^-6 M

| SMILES | inhibition at 1 µM |
| --- | --- |
| CSCC[C@H](NC(=O)c1ccc(CS[C@H](CO)Cc2ccccc2)cc1-c1ccccc1)C(=O)O [Example 545, N-[4-(3-phenylpropan-1-ol-2-ylthiomethyl)-2-phenylbenzoyl]methionine, sodium salt] | 88% |
| CSCC[C@H](NC(=O)c1ccc(OC/C=C(\C)CCC=C(C)C)cc1-c1ccccc1C)C(=O)O [Example 546, N-[4-geranyloxy-2-(2-methylphenyl)benzoyl]methionine, lithium salt] | 97% |
| CSCC[C@H](NC(=O)c1ccc(OC/C=C(\C)CC/C=C(\C)CCC=C(C)C)cc1-c1ccccc1C)C(=O)O [Example 547, N-[4-farnesyloxy-2-(2-methylphenyl)benzoyl]methionine, lithium salt] | 91% |
| CSCC[C@H](NC(=O)c1ccc(OCCC23CC4CC(CC(C4)C2)C3)cc1-c1ccccc1C)C(=O)O [Example 553, N-[4-(2-adamantan-1-ylethoxy)-2-(2-methylphenyl)benzoyl]methionine] | 92% |
| CSCC[C@H](NC(=O)c1ccc(CS(=O)(=O)Cc2ccccc2)cc1-c1ccccc1C)C(=O)O [Example 555, N-[4-benzylsulfonylmethyl-2-(2-methylphenyl)benzoyl]methionine] | 85% |
| CSCC[C@H](NC(=O)c1ccc(OC/C=C/c2ccccc2)cc1-c1ccccc1C)C(=O)O [Example 560, N-[4-(3-phenyl)prop-2-en-1-yloxy-2-(2-methylphenyl)benzoyl]methionine] | 91% |
| CSCC[C@H](NC(=O)c1ccc(OCCOc2ccccc2)cc1-c1ccccc1C)C(=O)O [Example 561, N-[4-(2-phenoxy)ethoxy-2-(2-methylphenyl)benzoyl]methionine] | 91% |
| CSCC[C@H](NC(=O)c1ccc(OCCCC2CCCCC2)cc1-c1ccccc1C)C(=O)O [Example 564, N-[4-(3-cyclohexylpropoxy)-2-(2-methylphenylbenzoyl]methionine, lithium salt] | 98% |
| CSCC[C@H](NC(=O)c1ccc(OCCCOc2ccccc2)cc1-c1ccccc1C)C(=O)O [Example 566, N-[4-(3-phenoxy)propoxy-2-(2-methylphenyl)benzoyl]methionine] | 98% |
| CSCC[C@H](NC(=O)c1ccc(OCCCCOc2ccccc2)cc1-c1ccccc1C)C(=O)O [Example 568, N-[4-(3-phenoxy)butoxy-2-(2-methylphenyl)benzoyl]methionine. lithium salt] | 93% |
| CSCC[C@H](NC(=O)c1ccc(COCc2ccccc2)cc1-c1ccccc1)C(=O)O [Example 575, N-[4-(benzyloxymethyl)-2-phenylbenzoyl]methionine] | 70% |
| Cc1ccccc1-c1cc(COCc2ccccc2)ccc1C(=O)N[C@@H](CCS(C)(=O)=O)C(=O)O [Example 576, N-2-[4-(benzyloxymethyl)-2-(2-methylphenyl)benzoyl]amino-4-methanesulfonylbutanoic acid lithium salt] | 88% |

same assay, conditions: read-out: % inhibition at 1 × 10^-7 M

| SMILES | inhibition at 0.1 µM |
| --- | --- |
| CSCC[C@H](NC(=O)c1ccc(CSCC2CCCCC2)cc1-c1ccccc1C)C(=O)O [Example 559, N-[4-cyclohexylmethylthiomethyl-2-(2-methylphenyl)benzoyl]methionine, lithium salt] | 96% |
| CSCC[C@H](NC(=O)c1ccc(CSCCc2ccccc2)cc1-c1ccccc1C)C(=O)O [Example 562, N-[4-(2-phenyl)ethylthiomethyl-2-(2-methylphenyl)benzoyl]methionine, lithium salt] | 95% |
| CSCC[C@H](NC(=O)c1ccc(COCc2ccccc2)cc1-c1ccccc1C)C(=O)O [Example 571, N-[4-(benzyloxymethyl)-2-(2-methylphenyl)benzoyl]methionine lithium salt] | 88% |

same assay, conditions: read-out: % inhibition at 1 × 10^-7 M; Table 3; 1 × 10^-7 M

| SMILES | inhibition at 0.1 µM |
| --- | --- |
| CSCC[C@H](NC(=O)c1ccc(CSc2ccc3ccccc3c2)cc1-c1ccccc1C)C(=O)O [Example 551, N-[4-naphth-2-ylthiomethyl-2-(2-methylphenyl)benzoyl]methionine] | 93% |
| COc1ccc(CSCc2ccc(C(=O)N[C@@H](CCSC)C(=O)O)c(-c3ccccc3C)c2)cc1 [Example 558, N-[4-(4-methoxybenzyl)thiomethyl-2-(2-methylphenyl)benzoyl]methionine, lithium salt] | 87% |
| CSCC[C@H](NC(=O)c1ccc(COc2ccc3ccccc3c2)cc1-c1ccccc1C)C(=O)O [Example 573, N-[4-(naphth-2-yloxymethyl)-2-(2-methylphenyl)benzoyl]methionine] | 72% |
| CSCC[C@H](NC(=O)c1ccc(COc2cccc3ccccc23)cc1-c1ccccc1C)C(=O)O [Example 574, N-[4-(naphth-1-yloxymethyl)-2-(2-methylphenyl)benzoyl]methionine] | 81% |

same assay, conditions: read-out: % inhibition at 1 × 10^-8 M; Table 4; 1 × 10^-8 M

| SMILES | inhibition at 0.01 µM |
| --- | --- |
| CSCC[C@H](NC(=O)c1ccc(OCCCCC2CCCCC2)cc1-c1ccccc1C)C(=O)O [Example 567, N-[4-(4-cyclohexyl)butoxy-2-(2-methylphenyl)benzoyl]methionine, lithium salt] | 69% |
